Assay results reported in US7772216B2, “Protein kinase and phosphatase inhibitors and methods for designing them” (The Research Foundation of State University of New York, priority 2001, dated 2010).
Where two headings read alike, the source gives them in different places. Each block holds one compound with its values, some of them ahead of it.

Assays:
[1] = SCID, mouse, in vivo, ip
PTP-1B = target: T1, PTP-1B (Homo sapiens, UniProt P18031); assay: PTP-1B inhibition; assay type: biochemical; settings: % inhibition at 10 micromolar compound
T1 sequence (P18031 1-435): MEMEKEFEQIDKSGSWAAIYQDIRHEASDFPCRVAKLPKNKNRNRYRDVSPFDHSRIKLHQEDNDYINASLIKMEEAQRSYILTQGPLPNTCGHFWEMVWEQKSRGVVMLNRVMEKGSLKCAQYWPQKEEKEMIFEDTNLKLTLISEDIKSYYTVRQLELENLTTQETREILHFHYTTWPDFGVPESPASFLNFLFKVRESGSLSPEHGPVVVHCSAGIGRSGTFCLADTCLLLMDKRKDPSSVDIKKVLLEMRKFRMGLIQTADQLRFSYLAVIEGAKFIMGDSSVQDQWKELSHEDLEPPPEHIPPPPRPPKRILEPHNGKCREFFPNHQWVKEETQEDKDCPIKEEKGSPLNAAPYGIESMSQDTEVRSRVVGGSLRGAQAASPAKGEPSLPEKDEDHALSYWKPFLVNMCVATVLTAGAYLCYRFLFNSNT
Description: (§1) Blanks for a particular enzyme indicate that inhibition was not found.

EGFRTK = EGFRTK (Homo sapiens, UniProt P00533); assay: EGFRTK inhibition; assay type: biochemical; settings: % inhibition at 10 micromolar compound
Description: as §1

p56 lck [2] = target: T2, p56 lck (Homo sapiens, UniProt P06239); assay: p56 lck inhibition; assay type: biochemical; settings: % inhibition at 10 micromolar compound
Description: as §1

NRK cells = assay: Normal rat kidney (NRK) cell growth; assay type: cell-based
Protocol: (§2) Active Src inhibitors can be studied in a set of side-by-side cell-based assays using normal rat kidney (NRK) cells and a temperature-sensitive pp60^v-Src transformant of this cell line (LA25). The LA25 transformant engages in anchorage- and serum-independent growth at the “permissive” temperature of 33° C. due to activation of pp60^v-src but not at the “non-permissive” temperature of 40° C. at which pp60^v-src is not activated (Li et al., 1996). The use of this pair of closely related cell lines for testing the Src inhibitors at both the permissive and non-permissive temperatures allows one to determine if a given Src inhibitor is blocking cell growth due to specific blockade of the Src signaling pathway, by a different mechanism or by a general cytotoxic effect.
(§3) As shown in this graph the growth of the LA25 cells at the permissive temperature of 33° C. is inhibited by ca. 50% at a 25 μM concentration of 43-meta relative to the LA25 cell growth at the non-permissive 40° C. as a control. […] Since the 43-meta solutions were prepared with a low concentration of DMSO for solubilization, a DMSO control was also run at the same concentration.

LA25 cells = assay: LA25 (ts pp60^v-src transformed NRK) cell growth; assay type: cell-based, rat
Protocol: as §2, §3

PC-3 = assay: NIH 60-tumor cell panel, PC-3; assay type: cell-based; settings: Homo sapiens, NIH prostate cancer cell line, read-out: growth inhibition IC50, PC-3
Description: The initial non-peptide Src inhibitors have also shown very encouraging results in four different series of cell culture assays. 1) In the NIH 60-tumor cell panel assay, broad activity (as one would expect for a Src inhibitor) was seen against the tumor cell lines, including the prostate lines. […] 3) The Src inhibitors were compared to the cancer drugs etoposide, taxol, doxorubicin and cisplatin in ovarian tumors from three different patients and an abdominal carcinoma from another patient. […] 5) Two of the Src inhibitors were also tested for inhibition of ts v-Src stimulated LA25 cell growth. […] 6) Two of the Src inhibitors were also tested for inhibition of normal rat kidney cell growth. The results are shown in FIG. 16D and illustrate that the inhibitors are cytoprotective for normal cells.

pp60^c-src [3] = target: T3, pp60^c-src (Homo sapiens, UniProt P12931); assay: Cellular Mimetic Src assay (RR-SRC phosphorylation)
Target sequence in this assay (P12931 whole entry): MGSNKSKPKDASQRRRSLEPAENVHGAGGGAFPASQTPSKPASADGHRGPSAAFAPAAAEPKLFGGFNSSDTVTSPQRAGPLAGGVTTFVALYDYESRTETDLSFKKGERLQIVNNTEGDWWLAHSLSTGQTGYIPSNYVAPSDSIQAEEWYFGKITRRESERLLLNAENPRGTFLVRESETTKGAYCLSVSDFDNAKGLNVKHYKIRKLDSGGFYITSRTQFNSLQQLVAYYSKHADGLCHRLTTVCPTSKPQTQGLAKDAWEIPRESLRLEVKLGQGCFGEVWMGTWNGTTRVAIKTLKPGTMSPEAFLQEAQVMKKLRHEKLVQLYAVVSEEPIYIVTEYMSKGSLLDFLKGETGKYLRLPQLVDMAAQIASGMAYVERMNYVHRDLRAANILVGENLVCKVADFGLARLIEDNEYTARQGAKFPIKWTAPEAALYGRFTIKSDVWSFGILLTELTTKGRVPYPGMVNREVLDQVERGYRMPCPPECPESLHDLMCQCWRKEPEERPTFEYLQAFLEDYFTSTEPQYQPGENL

p56 lck [4] = target: T2, p56 lck; settings: analyzed with the tyrosine kinase p56^lck; cited from earlier work
pp60^c-src [5] = target: T3, pp60^c-src; settings: literature value, cited from earlier work
Target sequence in this assay (P12931 whole entry, species assumed): as the sequence (P12931 whole entry) above

[6] = read-out: % Inhibition of 2 mM RR-src at Inhibitor Concentration (100 μM)

T2 sequence (P06239 whole entry, species assumed): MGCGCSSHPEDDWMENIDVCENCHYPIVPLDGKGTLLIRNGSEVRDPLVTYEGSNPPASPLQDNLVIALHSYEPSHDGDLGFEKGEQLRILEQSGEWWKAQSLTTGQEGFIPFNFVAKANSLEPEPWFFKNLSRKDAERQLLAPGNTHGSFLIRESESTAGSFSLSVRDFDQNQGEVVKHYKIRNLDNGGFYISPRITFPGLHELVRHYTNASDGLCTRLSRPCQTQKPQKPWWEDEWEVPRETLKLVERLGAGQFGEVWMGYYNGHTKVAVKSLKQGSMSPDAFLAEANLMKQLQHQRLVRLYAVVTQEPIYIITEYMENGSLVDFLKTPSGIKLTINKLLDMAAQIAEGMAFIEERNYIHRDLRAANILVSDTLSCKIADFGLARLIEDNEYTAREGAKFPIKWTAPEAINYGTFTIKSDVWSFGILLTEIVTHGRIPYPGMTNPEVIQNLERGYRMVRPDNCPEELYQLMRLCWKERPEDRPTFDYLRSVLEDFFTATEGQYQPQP
EGFRTK, sequence (P00533 25-1210): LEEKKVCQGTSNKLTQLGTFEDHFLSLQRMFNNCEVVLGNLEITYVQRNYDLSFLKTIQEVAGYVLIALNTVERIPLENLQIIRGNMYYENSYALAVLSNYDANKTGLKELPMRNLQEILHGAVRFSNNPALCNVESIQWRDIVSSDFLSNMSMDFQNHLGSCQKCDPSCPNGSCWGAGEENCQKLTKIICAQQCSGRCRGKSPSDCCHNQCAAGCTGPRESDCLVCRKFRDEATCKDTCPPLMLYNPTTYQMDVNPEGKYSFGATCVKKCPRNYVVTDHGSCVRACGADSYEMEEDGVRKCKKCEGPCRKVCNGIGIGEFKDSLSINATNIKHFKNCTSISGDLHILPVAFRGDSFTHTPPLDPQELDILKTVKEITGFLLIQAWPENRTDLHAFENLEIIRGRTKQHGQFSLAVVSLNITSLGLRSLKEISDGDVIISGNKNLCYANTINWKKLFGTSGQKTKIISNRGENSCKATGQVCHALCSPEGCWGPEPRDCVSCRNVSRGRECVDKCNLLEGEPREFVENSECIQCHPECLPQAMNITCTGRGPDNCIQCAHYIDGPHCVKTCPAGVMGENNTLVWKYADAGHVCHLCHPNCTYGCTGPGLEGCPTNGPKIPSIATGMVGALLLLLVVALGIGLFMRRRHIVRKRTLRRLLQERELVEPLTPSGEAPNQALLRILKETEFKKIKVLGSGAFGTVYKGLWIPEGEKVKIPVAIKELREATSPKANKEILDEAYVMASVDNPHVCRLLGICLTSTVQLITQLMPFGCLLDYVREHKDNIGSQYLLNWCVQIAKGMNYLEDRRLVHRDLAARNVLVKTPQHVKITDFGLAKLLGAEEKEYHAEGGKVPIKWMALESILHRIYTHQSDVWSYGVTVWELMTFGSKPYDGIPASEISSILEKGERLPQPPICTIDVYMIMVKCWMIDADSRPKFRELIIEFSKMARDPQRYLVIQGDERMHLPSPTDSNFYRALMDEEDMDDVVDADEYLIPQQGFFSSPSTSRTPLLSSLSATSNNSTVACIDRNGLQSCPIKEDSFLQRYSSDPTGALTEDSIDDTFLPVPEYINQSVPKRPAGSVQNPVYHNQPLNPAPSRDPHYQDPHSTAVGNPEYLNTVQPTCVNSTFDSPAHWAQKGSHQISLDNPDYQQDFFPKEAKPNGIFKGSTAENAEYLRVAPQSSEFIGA

Structure (SMILES): O=C(NCc1cccc(O)c1)c1cc2cc(F)ccc2[nH]1 [Compound 1a]
toxicity in mice (weight loss) [1]: less toxic in mice than compound 2k from Example 4

Structure (SMILES): COc1ccc(NC(=O)c2cc3cc(F)ccc3[nH]2)cc1CO [Compound 1cccc]
PTP-1B @ 10 μm (PTP-1B): 20%
EGFRTK @ 10 μm (EGFRTK): 19%

Structure (SMILES): O=C(NCc1ccc(CO)cc1)c1cc2cc(F)ccc2[nH]1 [Compound 1oooo]
p56 LcK @ 10 μm (p56 lck [2]): 10%
EGFRTK @ 10 μm (EGFRTK): 33%

Structure (SMILES): O=C(Nc1cccc(O)c1)c1cc2ccc(O)cc2cc1O [Compound 43-meta]
inhibition of normal rat kidney (parent non-transformed) cell growth (NRK cells): without inhibiting the normal growth of the parent non-transformed cells
cell toxicity (basal growth of NRK and LA25 cells) (NRK cells; concentration increased up to 400 μM): lack of cell toxicity
inhibition of v-Src induced LA25 cell growth (LA25 cells): specifically blocked the v-Src induced cell growth
inhibition at 25 µM (LA25 cells; Rattus norvegicus, NRK, 25 μM, permissive 33° C. relative to non-permissive 40° C.): ~50%
IC50 (LA25 cells; Rattus norvegicus, NRK, read-out: IC50 for blocking pp60^v-src stimulated cell proliferation): ~25 µM
IC50 (PC-3): 19 µM
IC50 (pp60^c-src [3]): 18 µM
Ki (pp60^c-src [3]; K1, Table V): 10 µM
inhibition at 100 µM (pp60^c-src [3]; [6]): 89%

Structure (SMILES): O=C(Nc1cccc(O)c1)c1cc2cccc(O)c2cc1O [Compound 45]
inhibition of normal rat kidney (parent non-transformed) cell growth (NRK cells): without inhibiting the normal growth of the parent non-transformed cells
inhibition of v-Src induced LA25 cell growth (LA25 cells): specifically blocked the v-Src induced cell growth
IC50 (PC-3): 15 µM
IC50 (pp60^c-src [3]): 170 µM
mode of inhibition with respect to ATP (pp60^c-src [3]; increasing ATP concentration up to 1 mM): 45 NON-ATP
inhibition at 100 µM (pp60^c-src [3]; [6]): 51%

Structure (SMILES): Cc1cc(O)c2c(c1)C(=O)c1cc(O)cc(O)c1C2=O [Emodin, reference compound]
mode of inhibition with respect to ATP (p56 lck [4]): ATP-competitive
inhibition at 100 µM (pp60^c-src [3]; read-out: % Inhibition at 100 μM (std. dev.)): 22%

Structure (SMILES): CCOc1cc(/C=C(\C#N)C(N)=O)cc(CSc2ccccc2)c1O [drawing 65, ST 638, reference compound]
IC50 (pp60^c-src [5]; Table V, read-out: Lit. IC50): 18 µM
inhibition at 100 µM (pp60^c-src [3]; [6]): 37%

More lines, main results first:

p56 LcK @ 10 μm (p56 lck [2]): 12%
Structure (SMILES): O=C(Nc1ccccc1O)c1cc2cc(F)ccc2[nH]1 [Compound 1n]

p56 LcK @ 10 μm (p56 lck [2]): 11%
Structure (SMILES): O=C(Nc1cc(O)cc(O)c1)c1cc2cc(F)ccc2[nH]1 [Compound 1r]

p56 LcK @ 10 μm (p56 lck [2]): 12%
Structure (SMILES): COc1cc(OC)c(CNC(=O)c2cc3cc(F)ccc3[nH]2)c(OC)c1 [Compound 1rr]

melting point: 239 to 241 °C
EGFRTK @ 10 μm (EGFRTK): 26%
Structure (SMILES): O=C(NCc1cccc(F)c1)c1cc2cc(F)ccc2[nH]1 [Compound 1z]

PTP-1B @ 10 μm (PTP-1B): 12%
Structure (SMILES): O=C(NCc1ccc(Cl)cc1)c1[nH]c2ccc(F)cc2c1-c1ccccc1 [Compound 2gg]

% Inhibition at 100 μM (std. dev.) (pp60^c-src [3]; Table IX, hydroxynaphthalene derivatives and published inhibitors): 37 (+/−5) %
Structure (SMILES): CCOc1cc(/C=C(\C#N)C(N)=O)cc(CSc2ccccc2)c1O [ST-638, reference compound]
IC50 (pp60^c-src [5]; Table IX, read-out: IC50 (μM), Lit): 18 µM
